Tests used:
[1] = Oil solubility (turbidity of 1% in model oil); format: physicochemical; details: for Solubility in oil, appearance / dissolution: symbol or word
Procedure: In the course of the test, 0.2 g of the surfactant to be tested is weighed into 20 g of model oil and then dissolved for 1 hour at 60° C. with vigorous stirring. After cooling, the samples were poured into a clean, dry cuvette and then scattered at 500 nm with a spectrophotometer at ambient temperature. As reference, the light scattering of pure oil (0%) and standard opal body (100%) is used.

[2] = Thermal (heat/hydrolytic) stability, 90° C., 3 hours, transmittance; format: physicochemical; details: for Heat stability (90° C., 3 hours), appearance: appearance symbol; for Heat stability (90° C., 3 hours) (%): turbidity number
[3] = Interfacial tension (IFT), spinning drop; format: physicochemical; details: for IFT (mN/m) 0.1 g/l / IFT (mN/m) 1.0 g/l: 40° C., 4500 rpm; for IFT (mN/m), concentration 0.1 g/l / IFT (mN/m), concentration 1 g/l / IFT (mN/m), concentration 5 g/l: commercial surfactants
Procedure: The interfacial tension (IFT) in the following examples is measured in a spinning drop type tensile meter at 4500 rpm at 40° C. temperature. The test capillary was filled with various concentrations of surfactant solution into which a drop of oil of Algyő type oil was injected through a syringe. In steady state, the interfacial tension between the surfactant solution and the crude oil can be calculated based on the geometric dimensions of the droplet taken by the oil drop.

[4] = format: physicochemical
Description: For the test, the prepared surfactant solution samples were filled into a clean, dry cuvette and then scattered in a spectrophotometer at 500 nm wavelength using a nephelometric pad at ambient temperature. The turbidity of the sample to be tested is compared to the light scattering of pure water (0%) and the reference opal body (100%).

Row | Water solubility [4] | Compound | Solubility in oil, appearance / dissolution [1] | Solubility in oil (%) ([1]; turbidity number) | Heat stability (90° C., 3 hours), appearance [2] | Heat stability (90° C., 3 hours) (%) [2] | IFT (mN/m) 0.1 g/l [3] | IFT (mN/m) 1.0 g/l [3] | Water solubility (%) [4] | Water solubility, appearance [4] | IFT (mN/m), concentration 0.1 g/l [3] | IFT (mN/m), concentration 1 g/l [3] | IFT (mN/m), concentration 5 g/l [3]
1 | – | CCCCCCCCCCCCc1ccc(S(=O)(=O)O)cc1.CCCCCCCCCCCCc1ccc(S(=O)(=O)O)cc1.NCCCOCCCCOCCCN [Example 24] | op. | 18% | op. | 100% | 0.042 mN/m | 0.103 mN/m | 100% | m. | – | – | –
2 | – | CC(O)CO (stereo not drawn) [Propylene glycol, reference compound] | – | – | – | – | – | – | – | – | 11.53 mN/m | 16.14 mN/m | 15.4 mN/m
3 | – | CCCCCCCCCCCCc1ccc(S(=O)(=O)[O-])cc1.[Na+] [DBSNa-salt 30% solution, Sodium salt of dodecylbenzylsulfonic acid, reference compound] | – | – | – | – | – | – | – | – | 0.34 mN/m | 0.63 mN/m | 0.88 mN/m
4 | – | CCCCCCCCCCCCc1ccc(S(=O)(=O)O)cc1.CCCCCCCCCCCCc1ccc(S(=O)(=O)O)cc1.NCCCCCCN [Example 21] | n.o. | – | m. | 100% | 0.019 mN/m | 0.015 mN/m | 100% | m. | – | – | –
5 | – | CCCCCCCCCCCCc1ccc(S(=O)(=O)O)cc1.CCCCCCCCCCCCc1ccc(S(=O)(=O)O)cc1.CN(C)CCCNCCCN(C)C.Cl [Example 38] | – | – | op. | 31% | 0.15 mN/m | 0.16 mN/m | – | – | – | – | –
6 | 4% | bis(C14-C17 sec-alkyl)-sulphonate-poly (propylene-glycol)-bis-(2-ammonium-propyl)-ether salt [Example 3] | – | – | – | – | – | – | – | – | – | – | –
7 | – | CCCCCCCCCCCCc1ccc(S(=O)(=O)O)cc1.CCCCCCCCCCCCc1ccc(S(=O)(=O)O)cc1.NCCCCN [Example 23] | n.o. | – | b. | 20% | 0.120 mN/m | 0.170 mN/m | 100% | m. | – | – | –
8 | 100% | 2-methylpentane-1,5-diammonium-bis(C14-C17 sec-alkylsulphonate) [Example 5] | – | – | – | – | – | – | 100% | m. | – | – | –

Reference: patent publication US11634624B2, “Surfactants for enhanced oil recovery” (MOL MAGYAR OLAJ- ÉS GÁZIPARI NYILVÁNOSAN MŰKÖDŐ …, priority 2018, dated 2023)
